The nature of assay [1]: Mouse antibody isotyping assay. In kind it is in vivo, Balb/c mice. The method, then: We also analyzed the different isotypes of antibodies being generated by vaccination.
Antibody isotypes (i.e. IgA, IgM, IgG1, IgG2a, IgG2b, IgG3) were determined using the Mouse Typer Isotyping Kit (BIO-RAD, Hercules, CA). Briefly, wells of a 96-well assay plate were coated with 200 ng peptide antigen in ddH2O, and incubated at 4° C. overnight. The plate was washed with washing buffer (0.05% Tween-20 and 1% horse sera in PBS). The plate was then blocked with 1% BSA in PBS at room temperature for 1 hour. 100 ul of diluted mice sera was added to each well for 2 hours and after washing the wells, 100 μl ready to use rabbit anti-mouse subclasses antibodies were added to each well respectively and incubated at room temperature for another 2 hours. The wells were washed again, 100 μl of 1/3000 dilution of goat anti-rabbit conjugated to HRP antibody (BIO-RAD, Hercules, CA) was added to each well and incubated for 1 hour at room temperature in dark. The plate was then washed and 50 μl prepared substrate solution was added to each well. The reaction was stopped with 25 μl 5% SDS stopping buffer. Absorbance at 415 nm was determined using an ELISA plate reader. Dilutions of each sera samples were determined by the ELISA titers shown in absorbance of 0.4 or higher after subtracting the background.

For the next assay, the system named is MVF-PD-L1 peptides. The assay is described as follows: Immunogenicity in rabbits: ELISA antibody titers of sera vs the immunogen. In kind it is in vivo, New Zealand White rabbits. The conditions noted are these: after the second boost. On the procedure:
Immunogenicity of MVF-PD-L1 B-cell epitopes. New Zealand White rabbits were immunized with 1 mg of each MVF-peptide immunogens dissolved in dd H2O emulsified (1:1) in Montanide ISA 720 vehicle (Seppic) with 333 μg of N-acetylglucosamine-3yl-acetyl-1-alanyl-d-isoglutamine (nor-MDP). Rabbits were boosted with the same doses at 3-week's intervals. Blood was collected via the central auricular artery in rabbits. Blood was collected weekly (1Y+3, 2Y+1, 2Y+2,2Y+3, 3Y+1, 3Y+2 and sera tested for antibody titers by ELISA using the immunogens MVF-PD-L1 peptides. Sera (terminal) from rabbit (3Y+3) immunized with MVF-PD-1 peptide immunogens were tested individually versus the immunogen by ELISA. 200 ng/well peptide were used in duplicates to coat the ELISA plates. Titers are defined as the highest dilution of sera with an absorbance value of 0.2 after subtracting the blank.
For each peptide, vaccine antibodies were raised using New Zealand white rabbits purchased from Charles River Laboratories (Wilmington, MA, USA). […] Antibody titers were monitored by direct ELISA against the peptide immunogen, the peptide B cell epitope, and an acetylated version of the B-cell epitope. […] Peptide vaccine antibodies were purified by affinity chromatography using a protein A/G column and the concentration was measured by Coomassie protein assay. […]
(In general: ELISA stands for enzyme-linked immunosorbent assay.)

Where no end group is shown, it is not given here.

Take “KLLSLIKGVIVHRLEGVEGPSLVTSEHELTCQAEGYPKAE (KLLSLIKGVIVHRLEGVEGPSLVTSEHELTCQAEGYPKAE-NH2) [PD-L1(130)]”: the “isotypes of antibodies elicited in the mice” value in assay [1] (experiment 1 (CT26 WT)) and in assay [1] (experiment 2 (CT26/HER-2)) was “predominantly of the IgG1 class” throughout. For the same sequence, the antibody titers with MVF-PD-L1 peptides is on record as 64,000.

In the case of “KLLSLIKGVIVHRLEGVEGPSLYRCMISYGGADYKRITVK (KLLSLIKGVIVHRLEGVEGPSLYRCMISYGGADYKRITVK-NH2) [PD-L1(95)]”, in the assay with MVF-PD-L1 peptides, the antibody titers is 64,000.

The values above are taken from patent US12589143B2, “Human anti-PD-L1 peptide vaccines and methods of their use” (priority 2019, dated 2026).
